Experiments:
Experiment in all cases: Kinase profiling in a biochemical assay panel (mobility shift assays and ELISA), %-inhibition at 1 μM; selectivity entropy
[1] = target: T1, panel of more than 300 wild-type and mutant kinases (313 kinase panel) (Homo sapiens, UniProt P21709); conditions: kinase EPHA1; compound at 1 μM
T1 sequence (P21709 26-976): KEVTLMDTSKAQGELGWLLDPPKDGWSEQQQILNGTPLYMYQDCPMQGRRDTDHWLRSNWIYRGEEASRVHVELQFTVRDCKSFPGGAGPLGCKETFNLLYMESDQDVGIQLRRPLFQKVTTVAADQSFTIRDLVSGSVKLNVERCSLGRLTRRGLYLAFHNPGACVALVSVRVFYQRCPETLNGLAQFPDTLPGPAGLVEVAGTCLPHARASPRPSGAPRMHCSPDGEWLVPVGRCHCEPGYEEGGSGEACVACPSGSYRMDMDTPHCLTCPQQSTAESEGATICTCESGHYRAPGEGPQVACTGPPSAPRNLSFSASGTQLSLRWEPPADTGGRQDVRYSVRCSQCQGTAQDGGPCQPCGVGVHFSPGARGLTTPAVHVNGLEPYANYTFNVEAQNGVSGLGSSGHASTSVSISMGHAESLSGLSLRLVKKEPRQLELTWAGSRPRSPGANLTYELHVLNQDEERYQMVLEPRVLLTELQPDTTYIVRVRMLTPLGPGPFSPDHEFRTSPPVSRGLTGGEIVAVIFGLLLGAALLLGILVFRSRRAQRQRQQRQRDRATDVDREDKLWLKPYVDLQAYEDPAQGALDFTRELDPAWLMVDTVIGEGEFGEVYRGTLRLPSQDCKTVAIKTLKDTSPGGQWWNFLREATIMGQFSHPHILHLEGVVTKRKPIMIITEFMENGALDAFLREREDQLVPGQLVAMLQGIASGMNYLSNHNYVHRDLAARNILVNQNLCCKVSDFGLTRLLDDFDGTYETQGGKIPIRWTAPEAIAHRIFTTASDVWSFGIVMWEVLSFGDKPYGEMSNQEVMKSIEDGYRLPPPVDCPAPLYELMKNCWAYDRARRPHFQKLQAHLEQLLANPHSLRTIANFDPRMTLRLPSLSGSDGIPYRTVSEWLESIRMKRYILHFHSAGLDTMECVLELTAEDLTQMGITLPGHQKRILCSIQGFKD

[2] = target: panel of more than 300 wild-type and mutant kinases (313 kinase panel) (Homo sapiens, UniProt P17612)
[3] = target: T2, panel of more than 300 wild-type and mutant kinases (313 kinase panel) (Homo sapiens, UniProt P29320); conditions: kinase EPHA3; compound at 1 μM
T2 sequence (P29320 21-983): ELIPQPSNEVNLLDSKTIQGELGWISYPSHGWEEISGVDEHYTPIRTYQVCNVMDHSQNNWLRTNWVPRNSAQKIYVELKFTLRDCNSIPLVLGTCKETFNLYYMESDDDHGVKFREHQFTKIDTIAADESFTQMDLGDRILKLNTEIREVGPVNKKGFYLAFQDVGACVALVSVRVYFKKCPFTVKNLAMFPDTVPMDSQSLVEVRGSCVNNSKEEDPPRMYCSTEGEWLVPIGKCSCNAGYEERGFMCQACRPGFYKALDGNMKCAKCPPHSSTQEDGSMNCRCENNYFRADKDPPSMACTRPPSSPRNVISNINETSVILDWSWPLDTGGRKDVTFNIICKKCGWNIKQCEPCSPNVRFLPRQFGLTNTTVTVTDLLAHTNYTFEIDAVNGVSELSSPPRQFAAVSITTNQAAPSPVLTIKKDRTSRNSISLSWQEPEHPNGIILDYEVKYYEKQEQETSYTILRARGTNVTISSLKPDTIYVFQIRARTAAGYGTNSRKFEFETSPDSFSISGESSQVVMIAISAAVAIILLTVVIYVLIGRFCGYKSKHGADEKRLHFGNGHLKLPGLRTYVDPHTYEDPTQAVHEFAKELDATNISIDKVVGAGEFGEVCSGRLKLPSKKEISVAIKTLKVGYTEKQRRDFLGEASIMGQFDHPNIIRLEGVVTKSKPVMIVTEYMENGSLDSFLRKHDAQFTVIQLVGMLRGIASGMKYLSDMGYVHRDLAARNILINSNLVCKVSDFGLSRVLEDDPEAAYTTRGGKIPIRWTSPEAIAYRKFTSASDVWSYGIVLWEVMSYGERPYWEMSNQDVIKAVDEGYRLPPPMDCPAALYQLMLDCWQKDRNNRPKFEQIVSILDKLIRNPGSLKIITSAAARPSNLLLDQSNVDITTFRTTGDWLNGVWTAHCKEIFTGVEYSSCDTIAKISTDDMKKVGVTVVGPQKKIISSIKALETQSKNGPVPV

[4] = target: panel of more than 300 wild-type and mutant kinases (313 kinase panel) (Homo sapiens, UniProt P30291); conditions: kinase WEE1; compound at 1 μM
Sequence of panel of more than 300 wild-type and mutant kinases (313 kinase panel) (Homo sapiens, UniProt P30291) (P30291 whole entry, change not shown): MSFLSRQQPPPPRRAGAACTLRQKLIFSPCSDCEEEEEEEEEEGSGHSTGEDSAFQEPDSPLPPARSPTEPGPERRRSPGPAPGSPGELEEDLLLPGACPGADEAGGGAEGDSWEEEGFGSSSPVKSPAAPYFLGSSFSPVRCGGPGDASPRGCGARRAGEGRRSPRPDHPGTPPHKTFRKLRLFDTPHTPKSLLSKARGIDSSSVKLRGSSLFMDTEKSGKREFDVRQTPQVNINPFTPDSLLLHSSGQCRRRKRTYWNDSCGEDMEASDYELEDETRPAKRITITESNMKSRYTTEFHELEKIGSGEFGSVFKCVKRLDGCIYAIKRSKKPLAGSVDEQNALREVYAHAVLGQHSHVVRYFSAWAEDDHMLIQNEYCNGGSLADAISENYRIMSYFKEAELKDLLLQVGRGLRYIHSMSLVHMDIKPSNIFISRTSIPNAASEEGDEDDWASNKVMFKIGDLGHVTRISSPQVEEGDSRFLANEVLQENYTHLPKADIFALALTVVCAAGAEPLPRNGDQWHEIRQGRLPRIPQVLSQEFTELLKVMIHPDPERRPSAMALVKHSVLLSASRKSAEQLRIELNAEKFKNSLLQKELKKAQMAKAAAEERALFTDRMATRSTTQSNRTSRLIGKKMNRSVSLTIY

[5] = target: T3, panel of more than 300 wild-type and mutant kinases (313 kinase panel) (Homo sapiens, UniProt Q08881); conditions: kinase ITK; compound at 1 μM
T3 sequence (Q08881 1-620): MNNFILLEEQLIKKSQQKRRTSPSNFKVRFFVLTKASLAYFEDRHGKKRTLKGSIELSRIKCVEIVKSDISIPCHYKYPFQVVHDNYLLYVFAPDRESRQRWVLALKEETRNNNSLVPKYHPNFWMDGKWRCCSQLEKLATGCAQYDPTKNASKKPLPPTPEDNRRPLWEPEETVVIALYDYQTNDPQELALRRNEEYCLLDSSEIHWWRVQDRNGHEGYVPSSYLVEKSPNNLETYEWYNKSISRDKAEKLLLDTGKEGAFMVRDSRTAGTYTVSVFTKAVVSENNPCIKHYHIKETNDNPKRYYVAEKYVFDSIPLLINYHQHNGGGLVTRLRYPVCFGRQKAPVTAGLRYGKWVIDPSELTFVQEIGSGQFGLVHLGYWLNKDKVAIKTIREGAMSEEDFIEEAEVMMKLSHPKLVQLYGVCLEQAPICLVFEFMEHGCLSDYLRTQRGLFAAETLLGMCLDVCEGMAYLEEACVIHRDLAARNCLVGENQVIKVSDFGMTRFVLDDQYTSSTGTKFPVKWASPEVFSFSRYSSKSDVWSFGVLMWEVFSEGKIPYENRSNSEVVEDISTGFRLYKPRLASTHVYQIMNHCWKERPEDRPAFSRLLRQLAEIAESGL

SMILES	%-inhibition of EPHA1 [1] [%]	%-inhibition of PKACα ([2]; kinase PKACα, 1 μM) [%]	%-inhibition of EPHA3 [3] [%]	%-inhibition of WEE1 [4] [%]	%-inhibition of ITK [5] [%]	%-inhibition of PKACα ([2]; 1 µM) [%]
CNC(=O)c1cc(Oc2ccc(NC(=O)Nc3ccc(Cl)c(C(F)(F)F)c3)c(F)c2)ccn1 [regorafenib]	55	-5.47	80	4.42	2.43	
N#CC[C@H](C1CCCC1)n1cc(-c2ncnc3[nH]ccc23)cn1 [ruxolitinib]	43		2	-1.32	30	48
CO[C@H]1C[C@@H]2CC[C@@H](C)[C@@](O)(O2)C(=O)C(=O)N2CCCC[C@H]2C(=O)O[C@H]([C@H](C)C[C@@H]2CC[C@@H](OC(=O)C(C)(CO)CO)[C@H](OC)C2)CC(=O)[C@H](C)/C=C(\C)[C@@H](O)[C@@H](OC)C(=O)[C@H](C)C[C@H](C)/C=C/C=C/C=C/1C [temsirolimus]	-15	-6	-21	4.25	-1.7	
CC(=O)Nc1cccc(-n2c(=O)n(C3CC3)c(=O)c3c(Nc4ccc(I)cc4F)n(C)c(=O)c(C)c32)c1 [trametinib]	-1.61	8.52	-6	9	-7.56	
COc1cc2c(Nc3ccc(Br)cc3F)ncnc2cc1OCC1CCN(C)CC1 [vandetanib]	99	1.29	57	1.73	20	
CCCS(=O)(=O)Nc1ccc(F)c(C(=O)c2c[nH]c3ncc(-c4ccc(Cl)cc4)cc23)c1F [vemurafenib]	-9	-4	-7.52	-1.64	3	

Reference: article PMC3961306, “Comparison of the Cancer Gene Targeting and Biochemical Selectivities of All Targeted Kinase Inhibitors Approved for Clinical Use” (PLoS ONE, 2014)
